Reference: publication PMC11672292, “Discovery of Balasubramide Derivative with Tissue‐Specific Anti‐Inflammatory Activity Against Acute Lung Injury by Targeting VDAC1” (Advanced Science, 2024)
Where two headings read alike, the source gives them in different places.

Assay: Pharmacokinetics and tissue distribution after single intravenous administration
Type: in vivo, mouse
Conditions: mice; for Vd: read-out: VdSS; for Kp: read-out: Tissues/plasma ratio
Experimental: Pharmacokinetic studies were performed as previously described.^[ [63] ^] Briefly, ICR mice were fasted without water for 16 h before drug administration and allowed access to food and water freely after administration. After given a single intravenous administration of (+)3C‐20 (10 mg kg^−1), mice were anesthetized with isoflurane, and blood samples were collected through jugular vein at different time points (0, 0.083, 0.25, 0.5, 1, 2, 4, 6, 8, 24 h), as well as at different time points (0.5, 2, 6, 24 h) mice were euthanized and brain, heart, liver, spleen, lung, and kidney were collected. Blood samples were collected in tubes containing sodium heparin and centrifuged at 5000 rpm at 4 °C for 10 min to prepare plasma, tissues were cleaned in prechilled saline and homogenized to be tested, and all samples were stored at […]. LC‐MS/MS was performed to determine the concentrations of (+)3C‐20 in the plasma and tissues of the mice and to calculate the related pharmacokinetic parameters, which were then used to investigate the pharmacokinetic characteristics and tissue distribution of (+)3C‐20 in mice.

[1] = ICR, mouse, brain, iv, single i.v. 10 mg/kg, read-out: Concentration of (+)3C-20, Brain
[2] = ICR, mouse, heart, iv, single i.v. 10 mg/kg, read-out: Concentration of (+)3C-20, Heart
[3] = ICR, mouse, iv, single i.v. 10 mg/kg, Blood
[4] = ICR, mouse, iv, single i.v. 10 mg/kg, Brain
[5] = ICR, mouse, iv, single i.v. 10 mg/kg, Heart
[6] = ICR, mouse, iv, single i.v. 10 mg/kg, Kidney
[7] = ICR, mouse, iv, single i.v. 10 mg/kg, Liver
[8] = ICR, mouse, iv, single i.v. 10 mg/kg, Lung
[9] = ICR, mouse, iv, single i.v. 10 mg/kg, Plasma
[10] = ICR, mouse, iv, single i.v. 10 mg/kg, Spleen
[11] = ICR, mouse, kidney, iv, single i.v. 10 mg/kg, read-out: Concentration of (+)3C-20, Kidney
[12] = ICR, mouse, liver, iv, single i.v. 10 mg/kg, read-out: Concentration of (+)3C-20, Liver
[13] = ICR, mouse, lung, iv, single i.v. 10 mg/kg, read-out: Concentration of (+)3C-20, Lung
[14] = ICR, mouse, spleen, iv, single i.v. 10 mg/kg, read-out: Concentration of (+)3C-20, Spleen

O=C(CCc1ccc(C(F)(F)F)cc1)O[C@@H]1C(=O)NCCc2c([nH]c3ccccc23)[C@H]1c1ccc(C(F)(F)F)cc1 [(+)3C-20]
concentration at 0.5 h [1]: 518 ± 66 ng/g
concentration at 2 h [1]: 317 ± 86.1 ng/g
concentration at 6 h [1]: 113 ± 11.8 ng/g
concentration at 0.5 h [2]: 4510 ± 630 ng/g
concentration at 2 h [2]: 1270 ± 335 ng/g
concentration at 6 h [2]: 123 ± 12.7 ng/g
half-life (ICR, mouse, iv, i.v. 10 mg kg^−1, serum and plasma, read-out: average half-life (converted)): 5.3 ± 0.3 h
AUC(0-inf) [3]: 3600 ng·h/mL
AUC(0-t) [3]: 3470 ng·h/mL
C0 [3]: 3950 ng/mL
Cmax [3]: 2340 ng/mL
clearance [3]: 46.4 mL/min/kg
k el [3]: 3.36e-05 s⁻¹
Vd [3]: 12.3 L/kg
half-life (ICR, mouse, iv, single i.v. 10 mg/kg, Blood, read-out: t1/2 (converted)): 5.72 h
AUC(0-inf) [4]: 3160 ng·h/mL
AUC(0-t) [4]: 2980 ng·h/mL
C0 [4]: 610 ng/mL
Cmax [4]: 518 ng/mL
k el [4]: 3.44e-05 s⁻¹
Kp [4]: 0.699
half-life (ICR, mouse, iv, single i.v. 10 mg/kg, Brain, read-out: t1/2 (converted)): 5.57 h
AUC(0-inf) [5]: 10200 ng·h/mL
AUC(0-t) [5]: 9980 ng·h/mL
C0 [5]: 6890 ng/mL
Cmax [5]: 4510 ng/mL
k el [5]: 0.000178 s⁻¹
Kp [5]: 2.34
half-life (ICR, mouse, iv, single i.v. 10 mg/kg, Heart, read-out: t1/2 (converted)): 1.08 h
AUC(0-inf) [6]: 3980 ng·h/mL
AUC(0-t) [6]: 3780 ng·h/mL
C0 [6]: 1960 ng/mL
Cmax [6]: 1450 ng/mL
k el [6]: 0.000134 s⁻¹
Kp [6]: 0.885
half-life (ICR, mouse, iv, single i.v. 10 mg/kg, Kidney, read-out: t1/2 (converted)): 1.44 h
AUC(0-inf) [7]: 15500 ng·h/mL
AUC(0-t) [7]: 14900 ng·h/mL
C0 [7]: 6050 ng/mL
Cmax [7]: 5010 ng/mL
k el [7]: 0.000145 s⁻¹
Kp [7]: 3.5
half-life (ICR, mouse, iv, single i.v. 10 mg/kg, Liver, read-out: t1/2 (converted)): 1.33 h
AUC(0-inf) [8]: 22200 ng·h/mL
AUC(0-t) [8]: 22100 ng·h/mL
C0 [8]: 11700 ng/mL
Cmax [8]: 7780 ng/mL
k el [8]: 5.39e-05 s⁻¹
Kp [8]: 5.17
half-life (ICR, mouse, iv, single i.v. 10 mg/kg, Lung, read-out: t1/2 (converted)): 3.58 h
AUC(0-inf) [9]: 4770 ng·h/mL
AUC(0-t) [9]: 4700 ng·h/mL
C0 [9]: 6280 ng/mL
Cmax [9]: 4010 ng/mL
clearance [9]: 35.2 mL/min/kg
k el [9]: 3.97e-05 s⁻¹
Vd [9]: 6.1 L/kg
half-life (ICR, mouse, iv, single i.v. 10 mg/kg, Plasma, read-out: t1/2 (converted)): 4.88 h
AUC(0-inf) [10]: 9840 ng·h/mL
AUC(0-t) [10]: 9560 ng·h/mL
C0 [10]: 6800 ng/mL
Cmax [10]: 4370 ng/mL
k el [10]: 0.000161 s⁻¹
Kp [10]: 2.24
half-life (ICR, mouse, iv, single i.v. 10 mg/kg, Spleen, read-out: t1/2 (converted)): 1.2 h
concentration at 0.5 h [11]: 5010 ± 516 ng/g
concentration at 2 h [11]: 2840 ± 692 ng/g
concentration at 6 h [11]: 299 ± 25.1 ng/g
concentration at 0.5 h [12]: 4370 ± 1010 ng/g
concentration at 2 h [12]: 1160 ± 434 ng/g
concentration at 6 h [12]: 159 ± 51.7 ng/g
concentration at 0.5 h [13]: 7780 ± 525 ng/g
concentration at 2 h [13]: 2300 ± 281 ng/g
concentration at 6 h [13]: 440 ± 50.4 ng/g
concentration at 24 h (ICR, mouse, lung, iv, single i.v. 10 mg/kg, 24 h, read-out: Concentration of (+)3C-20, Lung): 23.8 ± 9.4 ng/g
concentration at 0.5 h [14]: 1450 ± 79.6 ng/g
concentration at 2 h [14]: 595 ± 192 ng/g
concentration at 6 h [14]: 98.7 ± 60 ng/g
lung tissue/plasma ratio in various organs (i.v. 10 mg kg^−1): highest
AUMC0-inf (single i.v. 10 mg/kg, Blood): 15950.5 h·h·ng·mL^-1
AUMC0-t (single i.v. 10 mg/kg, Blood): 11638.5 h·h·ng·mL^-1
MRTIV (single i.v. 10 mg/kg, Blood): 4.425 h
Tissues/plasma ratio (single i.v. 10 mg/kg, Blood): 0.734
AUMC0-inf (single i.v. 10 mg/kg, Brain): 19922 h·h·ng·mL^-1
AUMC0-t (single i.v. 10 mg/kg, Brain): 14234 h·h·ng·mL^-1
MRTIV (single i.v. 10 mg/kg, Brain): 6.3 h
AUMC0-inf (single i.v. 10 mg/kg, Heart): 12176 h·h·ng·mL^-1
AUMC0-t (single i.v. 10 mg/kg, Heart): 10724 h·h·ng·mL^-1
MRTIV (single i.v. 10 mg/kg, Heart): 1.2 h
AUMC0-inf (single i.v. 10 mg/kg, Kidney): 6846 h·h·ng·mL^-1
AUMC0-t (single i.v. 10 mg/kg, Kidney): 5185 h·h·ng·mL^-1
MRTIV (single i.v. 10 mg/kg, Kidney): 1.72 h
AUMC0-inf (single i.v. 10 mg/kg, Liver): 26259 h·h·ng·mL^-1
AUMC0-t (single i.v. 10 mg/kg, Liver): 21734 h·h·ng·mL^-1
MRTIV (single i.v. 10 mg/kg, Liver): 1.69 h
AUMC0-inf (single i.v. 10 mg/kg, Lung): 54321 h·h·ng·mL^-1
AUMC0-t (single i.v. 10 mg/kg, Lung): 50741 h·h·ng·mL^-1
MRTIV (single i.v. 10 mg/kg, Lung): 2.45 h
AUMC0-inf (single i.v. 10 mg/kg, Plasma): 13980 h·h·ng·mL^-1
AUMC0-t (single i.v. 10 mg/kg, Plasma): 11982 h·h·ng·mL^-1
MRTIV (single i.v. 10 mg/kg, Plasma): 2.91 h
AUMC0-inf (single i.v. 10 mg/kg, Spleen): 12590 h·h·ng·mL^-1
AUMC0-t (single i.v. 10 mg/kg, Spleen): 10456 h·h·ng·mL^-1
MRTIV (single i.v. 10 mg/kg, Spleen): 1.28 h
